Measured values from patent US6821751B2, “Hypoxia responsive transcription enhancer element from yeast” (The Brigham and Women's Hospital, Inc., priority 2001, dated 2004).

Assays:
[1] = test system: OLE1 promoter-lacZ fusion; assay: β-galactosidase assay of OLE1 promoter-lacZ fusion reporter (p62::934 and pAM4); format: cell-based, S. cerevisiae
Description: (§1) The construction of several of the OLE1 promoter-lacZ fusion deletion series has been described previously (Choi, et al., J. Biol. Chem. 271:3581-3589 (1996)). Construction of pAM6, pAM7, pAM10 and pAM16 vectors containing the OLE1 low oxygen response element (LORE) sequences −347 to −328 relative to the ATG translational start codon with the A of the codon designated as +1) was performed by inserting the synthetic paired oligonucleotides (10-5′ and 10-3′) into the XhoI restriction site of pTBA30, the CYC1 basal promoter-lacZ fusion vector. pAM16 contains one LORE copy in the −347 to −328 forward or (+) orientation 5′ to the basal CYC1 promoter-lacZ fusion. pAM7 has one LORE copy in the −328 to −347 reverse or (+) orientation. pAM6 contains a tandem repeat of the LORE in the (+) orientation. pAM10 was generated by inserting the synthetic paired oligonucleotides (yd-19 and yd-20) into the XhoI restriction site of pTBA30. The LORE in this plasmid has three mutations. Plasmid pAM4 is the p62::934 derivative with three nucleotide substitutions in the LORE region (-C342T, -T341A and -A339G) prepared utilizing three step PCR with oligonucleotides containing site-directed mutations. Two PCR reactions with appropriate pairs of mutant primers (PCR1 : yd-8 and yd-20 and PCR2: yd-19 and lacZ-3′) and Taq DNA polymerase were carried out as recommended by Roche Molecular Biochemicals (IN) in 100 μl reactions, using 1 ng of p62::934 as a template in a PTC-100 thermal cycler for 30 cycles (1 min at 94° C., 1 min at 55° C., 1 min at 72° C.), followed by 7 min at 72° C. The PCR products were purified from a 1.0% agarose gel using a Qiaex DNA extraction kit (Qiagen, Calif.). Then, PCR products 1 and 2 were annealed and amplified as above with primer yd-8 and lacZ-3′. The resulting PCR products were purified as above and digested with restriction enzymes HindIII and SalI. Finally this PCR product was cloned into HindIII and SalI pretreated p62::934 plasmid to generate pAM4. All the constructs were verified by DNA sequencing. The promoter deletion constructs were transformed into wild-type strain RZ53-6 for subsequent β-galactosidase assays.
Yeast cells containing lacZ fusion plasmids were grown at 30° C. on uracil dropout medium containing dextrose (Treco, et al., In Current Protocols in Molecular Biology, Ausubel, et al., eds., pp. 13.2.1-13.2.12, John Wiley & Sons, New York (1997)). For unsaturated fatty acid repression analysis, yeast were grown in medium supplemented with 1% tergitol as described previously (Choi, et al., J. Biol. Chem. 271:3581-3589 (1996)). Cells were grown in the presence of UFAs for 6 hours prior to the β-galactosidase assays. Plasmid amplifications and bacterial transformations were performed using Escherichia coli strain DH5 (Invitrogene Corp.). […]

[2] = test system: OLE1 mRNA; assay: Northern blot analysis of OLE1 mRNA; format: cell-based, S. cerevisiae; conditions: for levels of OLE1 mRNA after transition metal in normoxia: increasing concentrations
Description: (§2) Yeast cells containing lacZ fusion plasmids were grown at 30° C. on uracil dropout medium containing dextrose (Treco, et al., In Current Protocols in Molecular Biology, Ausubel, et al., eds., pp. 13.2.1-13.2.12, John Wiley & Sons, New York (1997)). For unsaturated fatty acid repression analysis, yeast were grown in medium supplemented with 1% tergitol as described previously (Choi, et al., J. Biol. Chem. 271:3581-3589 (1996)). Cells were grown in the presence of UFAs for 6 hours prior to the β-galactosidase assays. Plasmid amplifications and bacterial transformations were performed using Escherichia coli strain DH5 (Invitrogene Corp.). Yeast transformations were performed by the method of Elble (BioTechniques 13:18-20 (1992)). Preparative cultures were grown aerobically in a shaker at 200 rpm (Innova 4000 incubator shaker, New Brunswick Scientific. NJ) at 30° C. to mid-logarithmic phase. For experiments assessing yeast under hypoxic conditions, mid-logarithmic phase preparative cultures were used to inoculate special air-tight flasks with inlet and outlet ports to allow for equilibration with the appropriate gas mixtures. Cultures were exposed to a continuous flow of hydrated medical grade nitrogen (BOC Gases, MA), unless otherwise specified, for 6 hours after inoculating the medium via the inlet port. Of note, medical grade nitrogen is contaminated with trace amounts of O2 (less than 1%). The percentage of saturated O2 in each flask was confirmed by using an oxygen monitor (G. C. Industries, Inc.) attached to the outlet port of each culture. […] Growth was monitored by measuring the yeast OD600 at the completion of each experiment.
(§3) Total yeast RNA was isolated as described previously (Collart, et al., In Current Protocols in Molecular Biology, Ausubel, et al., pp. 13.12.1-13.12.5, John Wiley & Sons, New York (1997)). Equal amounts (15 μg) of total RNA were analyzed by Northern blots according to standard procedures for separation of RNA using 1% formaldehyde gels (Collart, et al., In Current Protocols in Molecular Biology, Ausubel, et al., eds, pp. 13.12.1-13.12.5, John Wiley & Sons, New York (1997)). […] Northern blots were quantified using a phosphorimager (Molecular Dynamics) and autoradiographs were also prepared on X-OMAT AR film (Kodak, NY).
For the detection of OLE1 mRNA, a radiolabeled DNA probe was made using a 0.5 kb EcoRI fragment from the OLE1 protein coding sequence. […] The purified DNA fragments were labeled to high specific activity with [^32P]dCTP by the random primer extension method using Ready to Go DNA labeling beads (Amersham Pharmaceutical Biotech) reaction kit. […] Specific activity of labeled probes was determined by liquid scintillation counting.

[3] = test system: S. cerevisiae; format: cell-based; conditions: any of the concentrations tested
Description: as §2, with “mixtures.” for “mixtures. Cultures were exposed to a continuous flow of hydrated medical grade nitrogen (BOC Gases, MA), unless otherwise specified, for 6 hours after inoculating the medium via the inlet port. Of note, medical grade nitrogen is contaminated with trace amounts of O2 (less than 1%). The percentage of saturated O2 in each flask was confirmed by using an oxygen monitor (G. C. Industries, Inc.) attached to the outlet port of each culture.”

[4] = test system: TRX2 mRNA; assay: Northern blot analysis of TRX2 mRNA; format: cell-based, S. cerevisiae
Description: (§4) Yeast cells containing lacZ fusion plasmids were grown at 30° C. on uracil dropout medium containing dextrose (Treco, et al., In Current Protocols in Molecular Biology, Ausubel, et al., eds., pp. 13.2.1-13.2.12, John Wiley & Sons, New York (1997)). For unsaturated fatty acid repression analysis, yeast were grown in medium supplemented with 1% tergitol as described previously (Choi, et al., J. Biol. Chem. 271:3581-3589 (1996)). Cells were grown in the presence of UFAs for 6 hours prior to the β-galactosidase assays. Plasmid amplifications and bacterial transformations were performed using Escherichia coli strain DH5 (Invitrogene Corp.). […] Growth was monitored by measuring the yeast OD600 at the completion of each experiment.
as §3, with “NY). […]” for “NY).”

[5] = test system: SUT1; assay: Northern blot analysis of SUT1 expression; format: cell-based, S. cerevisiae
Description: as §4
as §3, with “NY). […]” for “NY).”

[6] = test system: ANB1; assay: Expression of anaerobic yeast gene ANB1; format: cell-based, S. cerevisiae
[7] = test system: ATF1; assay: Northern blot analysis of ATF1 mRNA; format: cell-based, S. cerevisiae
Description: as §4
as §3, with “NY). […]” for “NY).”

[8] = test system: LORE-basal CYC1 promoter-lacZ; assay: microbe, parasite or virus in culture; format: cell-based, S. cerevisiae
Description: as §1, with “The promoter deletion constructs were transformed into wild-type strain RZ53-6 for subsequent β-galactosidase assays.” left out

[9] = test system: LORE binding factor(s); assay: Electrophoretic mobility shift assay (EMSA) with crude yeast extracts; set-up: species or system S. cerevisiae
Description: Haploid yeast (S. cerevisiae, strain RZ53-6 ) were cultured in 1-liter flasks containing 200 ml of YPD (1% yeast extract, 2% peptone, 2% dextrose) either under normoxic or hypoxic conditions, harvested at midlog phase (OD600=0.8), and lysed by vortexing with glass beads according to published protocols (Pfeifer, et al., Cell 49:9-18 (1987)). Following addition of ammonium sulfate to 40% and incubation on a rocker table at 4° C. for 30 minutes, the precipitate was collected by centrifugation at 14,000 rpm in a microfuge at 4° C. for 10 minutes. The pellet was resuspended in storage buffer (20 mM HEPES, pH8.0; 5 mM EDTA; 20% (v/v) glycerol; 1 mM PMSF; 7 mM β-mercaptoethanol) and stored frozen at −80° C. The soluble protein concentration was determined using a Bradford dye binding assay (BioRad, CA).
EMSAs were performed essentially as described by Carey (Carey, Methods Enzymol. 208:103-117 (1991)) utilizing synthetic paired oligonucleotides (e.g., 10-5′ and 10-3′) as a probe or a probe containing the LORE sequence made by PCR using p62::934 as the template with ^32P-labeled oligonucleotides 1-5′ and yd-10 (−397 to −234) as the primers. […] The concentration of each probe was determined on an ethidium bromide stained agarose-mini gel (Maniatis, et al., Molecular Cloning: A Laboratory Manual, Cold Spring Harbor Laboratory Press, Cold Spring Harbor, N.Y. (1982)). […]

c1cnc2c(c1)ccc1cccnc12 [1,10 Ph, 1,10-phenanthroline]
gene expression after incubation with chelator ([1]; 6 hours of incubation, 2-8 μg/ml): substantially increase
expression of OLE1 by OLE1 promoter-lacZ reporter ([1]; exposure for six hours): dose dependent increase
expression of OLE1 by Northern blot ([2]; exposure for six hours): dose dependent increase
cell growth [3]: unaffected

[Cl][Co][Cl] [CoCl2, cobalt chloride]
induction of reporter under cobalt-treated conditions in ROX1 deletion strain ([1]; reporter p62::934, strain RZ53-6 Δrox1): 5.1 fold increase
CoCl2 dependent induction by reporter assay ([1]; reporter pAM4 (mutated LORE)): not affected
cobalt induction of TRX2 mRNA [4]: ~2.5 fold
levels of OLE1 mRNA after transition metal in normoxia [2]: increased levels
induction of SUT1 expression by cobalt [5]: no significant induction
expression of ANB1 with cobalt [6]: not upregulated
induction of ATF1 by cobalt treatment [7]: induced
increase of reporter gene expression under cobalt-treated conditions ([8]; plasmid pAM6): ~10 fold

[Cl][Ni][Cl] [NiCl2, nickel chloride]
levels of OLE1 mRNA after transition metal in normoxia [2]: increased levels

CCCCC/C=C\C/C=C\CCCCCCCC(=O)O [linoleic acid]
hypoxia-induced LORE complex formation (B1) ([9]; crude extracts from L.A.-treated yeast): significantly suppressed
OLE1 mRNA level after unsaturated fatty acid ([2]; Northern blot): dramatically repressed
IC50 ([8]; Saccharomyces cerevisiae, reporter pAM6 (two copies of LORE in tandem), UFA for 6 hours, read-out: IC50 of inhibition of lacZ reporter plasmid pAM6 expression): ~20 µM
repression / dose-response inhibition of lacZ reporter pAM6 expression ([8]; normoxia-, hypoxia- and cobalt-induced expression, pAM6): strongly repress

#8: paired oligonucleotides -387 to -368 of OLE1 promoter (SEQ ID NO:44/45) (chain 1 AGGTCTCTTCGCATAGTCG; chain 2 CGACTATGCGAAGAGAACCT; chemistry not given here)
hypoxia- or CoCl2-induced complex formation with end-labeled probe ([9]; crude extracts from hypoxia and cobalt treated yeast): No specific hypoxia- or CoCl2-induced complex formation
